The results in this text go back to US11053235B2, “Substituted 1,4-dihydropyrimidines for the treatment of HBV infection or HBV-induced diseases” (Janssen Sciences Ireland Unlimited Company, priority 2018, dated 2021).

Like-named read-outs stand apart in the source and are kept apart here.

Type in all cases: cell-based
Data set [1] has as its system HBV. Description: Anti-viral assay in HepG2.2.15 cells: HBV inhibitory activity (HBV DNA in culture medium by q-PCR). To be noted: HepG2.2.15 cells, 6 days treatment, HBV DNA in culture medium by q-PCR, highest concentration 10 uM, read-out: EC50. In outline: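 HepG2.2.15 cells seeded at 40,000/well in 2% FBS medium, dosed next day for 6 days (medium refreshed once midway); 8-point 3-fold dilutions from 10 uM top. HBV DNA in culture medium extracted and quantified by q-PCR; EC50 calculated from dose-response.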

Data set [2] relates to HepG2.2.15 cells. Description: Cytotoxicity determination in HepG2.2.15 cells (CCK-8). To be noted: 6 days treatment, CCK-8, highest concentration 100 uM. In outline:
(§1)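 HepG2.2.15 cells seeded at 5,000 cells/well in 2% FBS medium and exposed to compounds for 6 days (medium refreshed once), 8 three-fold dilutions from 100 uM. Viability read by CCK-8 after 2.5 h at 37 °C, absorbance 450 nm with 630 nm reference; CC50 calculated.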

Experiment in data set [3]: as above
To be noted: human, 6 days treatment, CCK-8, highest concentration 100 uM. In outline: as §1

Where [4] appears, read: Hepatitis B virus, HepG2.2.15, 144 h.

On to `CCOC(=O)C1=C(C2CC=C(c3nc(C(=O)O)co3)CC2)NC(c2nccs2)=NC1c1ccc(F)c(F)c1Cl` (single isomer, unassigned) [Compound I-13-D, 2-(4-(6-(2-chloro-3,4-difluorophenyl)-5-(ethoxycarbonyl)-2-(thiazol-2-yl)-3,6-dihydropyrimidin-4-yl)cyclohex-1-en-1-yl)oxazole-4-carboxylic Acid], for which the EC50 (in general, the concentration giving half of the maximal effect) in data set [1] was 0.0032 µM. It took 6.09 µM to reach half-maximal cytotoxicity in data set [2] (CC50).
For `CCOC(=O)C1=C([C@H]2CC[C@H](c3nc(C(=O)O)no3)CC2)NC(c2nccs2)=NC1c1ccc(F)c(F)c1Cl` (stereo partly drawn) [Compound I-45, (trans)-5-(-4-(6-(2-Chloro-3,4-difluorophenyl)-5-(ethoxycarbonyl)-2-(thiazol-2-yl)-3,6-dihydropyrimidin-4-yl)cyclohexyl)-1,2,4-oxadiazole-3-carboxylic Acid], the 50% effective concentration (EC50) in data set [1] (setting [4]) is 0.071 µM. In addition, the 50% cytotoxic concentration (CC50) (usually the concentration that lowers cell viability or growth by half) at 6 days in data set [3] came out at 16.8 µM.
The matching figures for `CCOC(=O)C1=C(C2CCN(c3ncc(C(=O)O)cn3)C(C)C2)NC(c2nccs2)=NC1c1ccc(F)c(F)c1Cl` (stereo not drawn) [II-34-F, 2-(4-(6-(2-chloro-3,4-difluorophenyl)-5-(ethoxycarbonyl)-2-(thiazol-2-yl)-3,6-dihydropyrimidin-4-yl)-2-methylpiperidin-1-yl)pyrimidine-5-carboxylic acid]: below 0.0046 µM and 7.96 µM.
